Measured values published in ChEMBL document CHEMBL1137630, “Development of resistance in wild-type and hypermutable Pseudomonas aeruginosa strains exposed to clinical pharmacokinetic profiles of meropenem and ceftazidime simulated in vitro” (Antimicrob Agents Chemother, 2007).
≈ marks a conversion by molar mass, not a printed value. Calls of active or inactive are those of the source. The calls are words filed in the database; no cut-off is given here.

Columns and labels:
[1] = tested on: Pseudomonas aeruginosa; test: Antibacterial activity against Pseudomonas aeruginosa PAO1 at 30 ug/disk in presence of cephalosporinase inhibitor cloxacillin by disk diffusion test; type: functional; conditions: read-out: DIZ
[2] = tested on: Pseudomonas aeruginosa; test: Antibacterial activity against Pseudomonas aeruginosa PAO1 at 30 ug/disk in absence of cephalosporinase inhibitor cloxacillin by disk diffusion test; type: functional; conditions: read-out: DIZ
[3] = tested on: Pseudomonas aeruginosa; test: Antibacterial activity against Pseudomonas aeruginosa PAO1/CAZ mutant at 30 ug/disk in presence of cephalosporinase inhibitor cloxacillin by disk diffusion test; type: functional; conditions: read-out: DIZ
[4] = tested on: Pseudomonas aeruginosa; test: Antibacterial activity against Pseudomonas aeruginosa PAO1 in in vitro PK/PD model assessed as AAC (0 to 8 hrs) at 2 g infused thrice daily at 8 hrs interval measured after first dose; type: functional
[5] = %T>MIC against Pseudomonas aeruginosa PAO1 in in vitro PK/PD model at 2 g infused thrice daily at 8 hrs interval; type: functional
[6] = %T>MIC against hypermutable Pseudomonas aeruginosa 12-09-15 isolate in in vitro PK/PD model at 2 g infused thrice daily at 8 hrs interval; type: functional
[7] = tested on: Pseudomonas aeruginosa; test: Antibacterial activity against Pseudomonas aeruginosa PAO1/CAZ mutant at 30 ug/disk in absence of cephalosporinase inhibitor cloxacillin by disk diffusion test; type: functional; conditions: read-out: DIZ
[8] = tested on: Pseudomonas aeruginosa; test: Antibacterial activity against Pseudomonas aeruginosa PAO1 assessed as reduction of bacterial count in in vitro PK/PD model at 2 g infused every 8 hrs interval measured after first dose relative to initial inoculum; type: functional, organism-based
[9] = tested on: Pseudomonas aeruginosa; test: Antibacterial activity against Pseudomonas aeruginosa PAO1 by CLSI broth microdilution method; type: functional
[10] = Cmax in PK/PD in vitro model infused with 2g at 8hr intervals; type: ADME; set-up: dose 2 g; conditions: iv
[11] = Half life in in vitro PK/PD model at 2 g infused thrice daily at 8 hrs interval; type: ADME; conditions: iv
[12] = tested on: Pseudomonas aeruginosa; test: Antibacterial activity against Pseudomonas aeruginosa PAO1 assessed as reduction of bacterial count in in vitro PK/PD model at 2 g infused every 8 hrs interval measured after second dose relative to initial inoculum; type: functional
[13] = tested on: Pseudomonas aeruginosa; test: Antibacterial activity against Pseudomonas aeruginosa PAO1 assessed as bacterial count in in vitro PK/PD model at 2 g infused every 8 hrs interval measured 40 hrs after first dose relative to initial inoculum; type: functional, organism-based
[14] = tested on: Pseudomonas aeruginosa; test: Antibacterial activity against Pseudomonas aeruginosa PAO1 in in vitro PK/PD model assessed as AAC (0 to 24 hrs) at 2 g infused thrice daily at 8 hrs interval; type: functional
[15] = tested on: Pseudomonas aeruginosa; test: Antibacterial activity against Pseudomonas aeruginosa PAO1/CAZ mutant by CLSI broth microdilution method; type: functional
[16] = tested on: Pseudomonas aeruginosa; test: microbe, parasite or virus in culture; conditions: isolate 12-09-15
Description: Antibacterial activity against hypermutable Pseudomonas aeruginosa isolate 12-09-15 by CLSI broth microdilution method

[17] = tested on: Pseudomonas aeruginosa; test: Antibacterial activity against Pseudomonas aeruginosa PAO1 assessed as maximum bactericidal effect in in vitro PK/PD model by measuring change in bacterial count at 2 g infused every 8 hrs interval measured 17.5 hrs after initial dose relative to initial inoculum
[18] = tested on: Pseudomonas aeruginosa; test: Antibacterial activity against Pseudomonas aeruginosa PAO1/MEM mutant by CLSI broth microdilution method; type: functional
[19] = tested on: Pseudomonas aeruginosa; test: Antibacterial activity against Pseudomonas aeruginosa PAO1 in in vitro PK/PD model assessed as AAC (0 to 8 hrs) at 1 g infused thrice daily at 8 hrs interval measured after first dose; type: functional
[20] = %T>MIC against Pseudomonas aeruginosa PAO1 in in vitro PK/PD model at 1 g infused thrice daily at 8 hrs interval; type: functional
[21] = %T>MIC against hypermutable Pseudomonas aeruginosa isolate 12-09-15 in in vitro PK/PD model at 1 g infused thrice daily at 8 hrs interval; type: functional
[22] = Cmax in PK/PD in vitro model infused with 1g at 8hr intervals; type: ADME; set-up: dose 1 g; conditions: iv
[23] = Half life in in vitro PK/PD model at 1 g infused thrice daily at 8 hrs interval; type: ADME; conditions: iv
[24] = tested on: Pseudomonas aeruginosa; test: Antibacterial activity against Pseudomonas aeruginosa PAO1 assessed as maximum bactericidal effect in in vitro PK/PD model by measuring change in bacterial count at 1 g infused every 8 hrs interval measured 1 hr after first dose relative to initial inoculum; type: functional
[25] = tested on: Pseudomonas aeruginosa; test: Antibacterial activity against hypermutable Pseudomonas aeruginosa isolate 12-09-15 assessed as maximum bactericidal effect in in vitro PK/PD model by measuring change in bacterial count at 1 g infused every 8 hrs interval measured 3 hrs after first dose relative to initial inoculum; type: functional
[26] = tested on: Pseudomonas aeruginosa; test: Antibacterial activity against Pseudomonas aeruginosa PAO1 assessed as reduction of bacterial count in in vitro PK/PD model at 1 g infused every 8 hrs interval measured after second dose relative to initial inoculum; type: functional
[27] = tested on: Pseudomonas aeruginosa; test: Antibacterial activity against Pseudomonas aeruginosa PAO1 assessed as change in bacterial count in in vitro PK/PD model at 1 g infused every 8 hrs interval measured after 8 hrs relative to initial inoculum; type: functional, organism-based
[28] = tested on: Pseudomonas aeruginosa; test: Antibacterial activity against hypermutable Pseudomonas aeruginosa isolate 12-09-15 assessed as change in bacterial count in in vitro PK/PD model at 1 g infused every 8 hrs interval measured after 8 hrs relative to initial inoculum; type: functional, organism-based
[29] = tested on: Pseudomonas aeruginosa; test: Antibacterial activity against Pseudomonas aeruginosa PAO1 assessed as bacterial count in in vitro PK/PD model at 1 g infused every 8 hrs interval measured 40 hrs after first dose relative to initial inoculum; type: functional, organism-based
[30] = tested on: Pseudomonas aeruginosa; test: Antibacterial activity against hypermutable Pseudomonas aeruginosa isolate 12-09-15 assessed as bacterial count in in vitro PK/PD model at 1 g infused every 8 hrs interval measured 40 hrs after first dose relative to initial inoculum; type: functional, organism-based
[31] = tested on: Pseudomonas aeruginosa; test: Antibacterial activity against Pseudomonas aeruginosa PAO1 in in vitro PK/PD model assessed as AAC (0 to 24 hrs) at 1 g infused thrice daily at 8 hrs interval; type: functional
[32] = tested on: Pseudomonas aeruginosa; test: Antibacterial activity against hypermutable Pseudomonas aeruginosa isolate 12-09-15 in in vitro PK/PD model assessed as AAC (0 to 24 hrs) at 1 g infused thrice daily at 8 hrs interval; type: functional
[33] = Ratio of Cmax in in vitro PK/PD model at 1 g infused at every 8 hrs intervals to MIC for Pseudomonas aeruginosa PAO1; type: functional
[34] = Ratio of Cmax in in vitro PK/PD model at 1 g infused at every 8 hrs intervals to MIC for hypermutable Pseudomonas aeruginosa isolate 12-09-15; type: functional
[35] = tested on: Pseudomonas aeruginosa; test: Antibacterial activity against hypermutable Pseudomonas aeruginosa 12-09-15/MEM mutant by broth microdilution method

CC(C)(O/N=C(\C(=O)N[C@@H]1C(=O)N2C(C(=O)[O-])=C(C[n+]3ccccc3)CS[C@H]12)c1csc(N)n1)C(=O)O [CEFTAZIDIME]
zone of inhibition at 30 µg/disc [1]: 27 mm
zone of inhibition at 30 µg/disc [2]: 27 mm
zone of inhibition at 30 µg/disc [3]: 27 mm
AAC [4]: -0.19 deltalog10CFU/ml.hr
T>MIC [5]: 100%
T>MIC [6]: 45.8%
zone of inhibition at 30 µg/disc [7]: 17 mm
Activity [8]: inactive
MIC [9]: 2 µg/mL (≈ 3.66 µM)
Cmax [10]: 174 µg/mL
half-life [11]: 1.96 h
fold change (FC) [12]: 1
Activity [13]: inactive
AAC [14]: 9.29 deltalog10CFU/ml.hr
MIC [15]: 32 µg/mL (≈ 58.5 µM)
MIC [16]: 16 µg/mL (≈ 29.3 µM)
deltalog10CFU [17]: -1.28 /ml

C[C@H]1COc2c(N3CCN(C)CC3)c(F)cc3c(=O)c(C(=O)O)cn1c23.C[C@H]1COc2c(N3CCN(C)CC3)c(F)cc3c(=O)c(C(=O)O)cn1c23.O [LEVOFLOXACIN]
MIC [9]: 0.5 µg/mL
MIC [18]: 0.5 µg/mL
MIC [15]: 0.5 µg/mL

C[C@@H](O)[C@H]1C(=O)N2C(C(=O)O)=C(S[C@@H]3CN[C@H](C(=O)N(C)C)C3)[C@H](C)[C@H]12 [MEROPENEM]
AAC [19]: 5.3 deltalog10CFU/ml.hr
T>MIC [20]: 66.7%
T>MIC [21]: 41.7%
MIC [9]: 0.5 µg/mL (≈ 1.3 µM)
Cmax [22]: 56.1 µg/mL
half-life [23]: 0.45 h
deltalog10CFU [24]: -1.09 /ml
deltalog10CFU [25]: -1.23 /ml
deltalog10CFU [26]: -0.83 /ml
Activity [27]: inactive
Activity [28]: inactive
Activity [29]: inactive
Activity [30]: inactive
AAC [31]: -22.46 deltalog10CFU/ml.hr
AAC [32]: -19.58 deltalog10CFU/ml.hr
Ratio [33]: 112
Ratio [34]: 28.1
MIC [18]: 4 µg/mL (≈ 10.4 µM)
MIC [35]: 16 µg/mL (≈ 41.7 µM)
MIC [16]: 2 µg/mL (≈ 5.22 µM)

CCN1CCN(C(=O)N[C@@H](C(=O)N[C@@H]2C(=O)N3[C@@H]2SC(C)(C)[C@@H]3C(=O)O)c2ccccc2)C(=O)C1=O [PIPERACILLIN]
MIC [9]: 4 µg/mL (≈ 7.73 µM)
MIC [15]: 64 µg/mL (≈ 124 µM)

C[C@@H](O)[C@H]1C(=O)N2C(C(=O)O)=C(SCCNC=N)C[C@H]12 [IMIPENEM ANHYDROUS]
MIC [9]: 2 µg/mL (≈ 6.68 µM)
MIC [18]: 16 µg/mL (≈ 53.4 µM)
MIC [35]: 16 µg/mL (≈ 53.4 µM)
MIC [16]: 4 µg/mL (≈ 13.4 µM)
